Measurements: patent US6720184B1, “Method of altering sphingolipid metabolism and detecting fumonisin ingestion and contamination” (Emory University, priority 1991, dated 2004)
Several values for one entry are separate records, joined by “and”; a condition that tells them apart may be missing. Identical values can stand only once. Like-named read-outs stand apart in the source and are kept apart here.

Experiments:
[1] = test system: de novo sphingolipid biosynthesis; experiment: de novo sphingosine biosynthesis from [14C]serine in hepatocytes
Experimental: Hepatocyte culture—Hepatocytes were prepared by a collagenase perfusion method, as known in the art as described in (22), from male Sprague-Dawley rats (125 to 200 g) fed a chow diet (Ralston Purina, St. Louis, Mo.) ad libitum. The hepatocytes were isolated using carefully aseptic procedures and plated in 60 mm tissue culture dishes coated with collagen for short term (<24 h) or with Matrigel for longer term (3 to 4 d) experiments. After plating for 4 h, the medium was changed to 2 ml of DMEM (with 3.7 g/L NaHCO3) containing 10 μg/ml f insulin, 6.1 g/L of penicillin, 10 g/L of streptomycin sulfate, and varying concentrations of fumonisins (added from a 1 mM solution in Delbecco's phosphate buffered saline). The cells were maintained in a tissue culture incubator at 37° C. and an atmosphere of 5% CO2; the medium was changed every 24 h.
Lipid analyses—The de novo biosynthesis of sphingosine was measured, as known in the art as described in (23,24). Briefly, cells that had been exposed to fumonisins for 0 to 4 d were changed to new medium containing 10 μCi of [^14C]serine (25 mCi/mmol) in 2 ml of serine-free DMEM (Gibco) in the presence or absence of fumonisin. After incubation for 2 or 16 h, they were scraped from the dishes, 25 μg of carrier sphingosine and sphinganine were added, and the lipids were extracted and acid hydrolyzed to liberate the free long-chain bases using conditions that give optimal hydrolysis with minimal decomposition of the labile long-chain bases, as known in the art as described in (23-25). The sphinganine and sphingosine were separated by thin-layer chromatography on silica gel H (Brinkman) plates developed with CHCl,:methanol:2 N NH4OH (40:10:1, v/v/v) and the radiolabelling profile (shown in FIG. 2) was determined by radiometric scanning of the plates with a Bioscan System 200 Imaging Scanner. […] The appropriate regions of the chromatoplate were scraped, placed in scintillation vials, and 0.2 ml of water and 4 ml of a detergent based scintillation cocktail were added. After several hours, the samples were counted with the appropriate corrections for quenching.

ceramide synthase = experiment: in vitro assay of ceramide synthase, rat liver microsomes; type: biochemical; details: inhibition may be biphasic (FIG. 5), read-out: apparent IC50 for inhibition of ceramide synthase in vitro
Experimental: In vitro assays of serine palmitoyltransferase and ceramide synthase. A microsomal fraction was isolated from rat liver and assayed for serine palmitoyltransferase, as is known in the art as described in (24,29), and ceramide synthase, as is known in the art as described in (30), in the presence of varying concentrations of fumonisin B1. […] The reaction was initiated by adding palmitoyl-CoA and, after incubation at 37° C. for 15 min, the products were extracted, resolved by TLC, and quantitated as described above. Background counts were subtracted using data from identical assays that omitted palmitoyl-CoA.

[2] = Source text: (§1) Feeding protocols—Clinically normal ponies of varying age and sex were conditioned on the control diet for 21 days prior to the trial. Horse 341 was a 6 year old gelding (173-193 Kg), 299 was a 12 year old mare (205-215 Kg), 164 was a 12 year old mare (206-290 Kg) and 166 was a 16 year old mare (143-164 Kg). During the conditioning period and throughout the trial, all ponies received alfalfa hay by free choice. The test groups were fed varying levels of fumonisin (15 to 44 ppm) for varying lengths of time.
Clinical chemistry, evaluation, and tissue collection—The following clinical chemistry parameters were also analyzed with blood: total bilirubin, direct bilirubin, urea nitrogen, alkaline phosphatase, AST/SGOT, creatine kinase, gamma glutamyl transaminase, and bile acids. The animals were observed intermittently through ut each day and behavior changes were noted. Animals that were euthanized or died underwent a routine necropsy, and brain, liver, and kidney were prepared for microscopic study.

serum sphingolipids = experiment: long-chain bases liberated from total serum lipids by acid hydrolysis, ponies fed fumonisin; type: in vivo, pony
Source text: as §1
Analysis of serum long-chain bases—Blood was drawn approximately twice a week, centrifuged to obtain serum, and aliquots were frozen for analyses of free sphingosine and sphinganine by HPLC as is known in the art as described in (28). To quantitate total sphingolipids in some samples, the extracts were acid hydrolyzed before preparing the samples for HPLC.

[3] = Pony 208, fumonisin feed (level not given), day 2
[4] = Pony 208, fumonisin feed (level not given), day 6
[5] = Pony 208, fumonisin feed (level not given), day 10
[6] = Pony 208, fumonisin feed (level not given), day 13

Structure (SMILES): CCCC[C@@H](C)[C@@H](OC(=O)C[C@@H](CC(=O)O)C(=O)O)[C@H](C[C@@H](C)C[C@H](O)CCCC[C@@H](O)C[C@H](O)[C@H](C)N)OC(=O)C[C@@H](CC(=O)O)C(=O)O [fumonisin B1]
- inhibition of [14C]sphingosine formation by hepatocytes ([1]; 1 μM): almost complete inhibition
- de novo sphingolipid biosynthesis ([1]; 10 μM): completely blocked
- amount of radiolabel in [14C]sphinganine ([1]; hepatocytes treated (FIG. 4A)): increased
- IC50 ([1]; read-out: IC50 for inhibition of [14C]serine incorporation into [14C]sphingosine, rat hepatocytes, 2 h incubation (FIG. 3B)): ~100 nM and 100 nM
- IC50 (ceramide synthase): ~100 nM
- AST/SGDT [2, 3]: 344 units
- AST/SGDT [2, 4]: 2130 units
- AST/SGDT [2, 5]: 1240 units
- AST/SGDT [2, 6]: 1010 units
- AST/SGDT ([2]; Pony #164, feed 44 ppm, day 2): 235 Units
- AST/SGDT ([2]; Pony #164, feed 44 ppm, day 7): 357 Units
- AST/SGDT ([2]; Pony #164, feed 44 ppm, day 10): 4000 Units
- clinical signs ([2]; Pony #164, feed 44 ppm, day 10): ^1Pony was described as nervous and off feed from day 5; by day 9 was blind and down, and on day 10 had full clinical signs of ELEM and died that evening.
- clinical signs ([2]; Pony #166, feed 44 ppm, after being put back on full feed): ^2Pony was described as lethargic from day 5; off feed from day 8; later put back on full feed and exhibited CNS signs; was euthanized on day 45.
- AST/SGDT ([2]; Pony #166, feed 44 ppm, day 2): 199 Units
- AST/SGDT ([2]; Pony #166, feed 44 ppm, day 7): 215 Units
- AST/SGDT ([2]; Pony #166, feed 44 ppm, day 10): 1470 Units
- AST/SGDT ([2]; Pony #166, feed 44 ppm, day 13): 2080 Units
- clinical outcome ([2]; ponies 164 and 166, feed 44 ppm): resulted in ELEM
- time of death ([2]; pony 164, feed 44 ppm): 10 days
- elevation in AST/SGOT ([2]; pony 166, 44 ppm, day 10): 7 fold
- day of euthanasia ([2]; pony 166, feed 44 ppm): 45 days
- clinical outcome ([2]; pony 341, 15 then 22 ppm, day 235): died with the symptoms of equine leucoencephalomalacia
- serum AST/SGOT activities ([2]; pony 341, 15 then 22 ppm, until between day 224 and 231): essentially unaffected
- Sphinganine Total (acid hydrolysis of serum lipids) (serum sphingolipids; Pony 164, feed 44 ppm, day 2): 169 ± 30 pmol/mL
- Sphinganine Total (−free) (serum sphingolipids; Pony 164, feed 44 ppm, day 2): 99 pmol/mL
- Sphingosine Total (acid hydrolysis of serum lipids) (serum sphingolipids; Pony 164, feed 44 ppm, day 2): 621 ± 99 pmol/mL
- Sphingosine Total (−free) (serum sphingolipids; Pony 164, feed 44 ppm, day 2): 504 pmol/mL
- Sphinganine Total (acid hydrolysis of serum lipids) (serum sphingolipids; Pony 164, feed 44 ppm, day 7): 156 pmol/mL
- Sphinganine Total (−free) (serum sphingolipids; Pony 164, feed 44 ppm, day 7): 0 pmol/mL
- Sphingosine Total (acid hydrolysis of serum lipids) (serum sphingolipids; Pony 164, feed 44 ppm, day 7): 254 ± 32 pmol/mL
- Sphingosine Total (−free) (serum sphingolipids; Pony 164, feed 44 ppm, day 7): 102 pmol/mL
- Sphinganine Total (acid hydrolysis of serum lipids) (serum sphingolipids; Pony 164, feed 44 ppm, day 10): 786 ± 234 pmol/mL
- Sphinganine Total (−free) (serum sphingolipids; Pony 164, feed 44 ppm, day 10): 503 pmol/mL
- Sphingosine Total (acid hydrolysis of serum lipids) (serum sphingolipids; Pony 164, feed 44 ppm, day 10): 2960 ± 585 pmol/mL
- Sphingosine Total (−free) (serum sphingolipids; Pony 164, feed 44 ppm, day 10): 2740 pmol/mL
- Sphinganine Total (acid hydrolysis of serum lipids) (serum sphingolipids; Pony 166, feed 44 ppm, day 2): 131 ± 40 pmol/mL
- Sphinganine Total (−free) (serum sphingolipids; Pony 166, feed 44 ppm, day 2): 94 pmol/mL
- Sphingosine Total (acid hydrolysis of serum lipids) (serum sphingolipids; Pony 166, feed 44 ppm, day 2): 1020 ± 313 pmol/mL
- Sphingosine Total (−free) (serum sphingolipids; Pony 166, feed 44 ppm, day 2): 974 pmol/mL
- Sphinganine Total (acid hydrolysis of serum lipids) (serum sphingolipids; Pony 166, feed 44 ppm, day 7): 206 ± 18 pmol/mL
- Sphinganine Total (−free) (serum sphingolipids; Pony 166, feed 44 ppm, day 7): 144 pmol/mL
- Sphingosine Total (acid hydrolysis of serum lipids) (serum sphingolipids; Pony 166, feed 44 ppm, day 7): 950 ± 154 pmol/mL
- Sphingosine Total (−free) (serum sphingolipids; Pony 166, feed 44 ppm, day 7): 985 pmol/mL
- Sphinganine Total (acid hydrolysis of serum lipids) (serum sphingolipids; Pony 166, feed 44 ppm, day 10): 212 ± 28 pmol/mL
- Sphinganine Total (−free) (serum sphingolipids; Pony 166, feed 44 ppm, day 10): 34 pmol/mL
- Sphingosine Total (acid hydrolysis of serum lipids) (serum sphingolipids; Pony 166, feed 44 ppm, day 10): 634 ± 192 pmol/mL
- Sphingosine Total (−free) (serum sphingolipids; Pony 166, feed 44 ppm, day 10): 540 pmol/mL
- Sphinganine Total (acid hydrolysis of serum lipids) (serum sphingolipids; Pony 166, feed 44 ppm, day 13): 823 ± 54 pmol/mL
- Sphinganine Total (−free) (serum sphingolipids; Pony 166, feed 44 ppm, day 13): 650 pmol/mL
- Sphingosine Total (acid hydrolysis of serum lipids) (serum sphingolipids; Pony 166, feed 44 ppm, day 13): 1740 ± 150 pmol/mL
- Sphingosine Total (−free) (serum sphingolipids; Pony 166, feed 44 ppm, day 13): 1640 pmol/mL
- Sphinganine Total (acid hydrolysis of serum lipids) (serum sphingolipids; [3]): 387 ± 26 pmol/mL
- Sphinganine Total (−free) (serum sphingolipids; [3]): 107 pmol/mL
- Sphingosine Total (acid hydrolysis of serum lipids) (serum sphingolipids; [3]): 3490 ± 358 pmol/mL
- Sphingosine Total (−free) (serum sphingolipids; [3]): 3190 pmol/mL
- Sphinganine Total (acid hydrolysis of serum lipids) (serum sphingolipids; [4]): 718 ± 75 pmol/mL
- Sphinganine Total (−free) (serum sphingolipids; [4]): 60 pmol/mL
- Sphingosine Total (acid hydrolysis of serum lipids) (serum sphingolipids; [4]): 2390 ± 388 pmol/mL
- Sphingosine Total (−free) (serum sphingolipids; [4]): 2030 pmol/mL
- Sphinganine Total (acid hydrolysis of serum lipids) (serum sphingolipids; [5]): 2040 ± 70 pmol/mL
- Sphinganine Total (−free) (serum sphingolipids; [5]): 200 pmol/mL
- Sphingosine Total (acid hydrolysis of serum lipids) (serum sphingolipids; [5]): 4450 ± 10 pmol/mL
- Sphingosine Total (−free) (serum sphingolipids; [5]): 3460 pmol/mL
- Sphinganine Total (acid hydrolysis of serum lipids) (serum sphingolipids; [6]): 9990 ± 379 pmol/mL
- Sphinganine Total (−free) (serum sphingolipids; [6]): 9604 pmol/mL
- Sphingosine Total (acid hydrolysis of serum lipids) (serum sphingolipids; [6]): 15970 ± 1576 pmol/mL
- Sphingosine Total (−free) (serum sphingolipids; [6]): 15040 pmol/mL
